From ChEMBL document CHEMBL3596172 (J Med Chem, 2015)

Target: D(3) dopamine receptor (Homo sapiens, UniProt P35462)
Assay: biochemical
Description: Displacement of [3H]-N-methylspiperone from human dopamine D3 receptor (unknown origin) expressed in HEK293 cells after 1 hr by liquid scintillation counting

Sequence of D(3) dopamine receptor (P35462 whole entry): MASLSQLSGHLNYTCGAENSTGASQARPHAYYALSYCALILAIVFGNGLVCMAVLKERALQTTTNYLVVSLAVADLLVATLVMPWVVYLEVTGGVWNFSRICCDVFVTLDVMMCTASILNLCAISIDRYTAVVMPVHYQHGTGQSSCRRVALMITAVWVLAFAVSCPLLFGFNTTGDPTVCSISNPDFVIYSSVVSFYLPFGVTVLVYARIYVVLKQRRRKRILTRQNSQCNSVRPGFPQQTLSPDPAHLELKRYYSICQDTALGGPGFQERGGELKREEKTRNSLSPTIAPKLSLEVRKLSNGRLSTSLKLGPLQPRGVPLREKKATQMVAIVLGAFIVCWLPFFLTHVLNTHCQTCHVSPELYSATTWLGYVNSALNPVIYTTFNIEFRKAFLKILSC

Row | SMILES | Ki [nM]
1 | COc1ccccc1N1CCN(CC(O)CCNC(=O)c2ccc3ccccc3n2)CC1 (stereo not given) | 97.9
2 | COc1ccc2ncc(C(=O)NCCC(O)CN3CCN(c4ccccc4OC)CC3)cc2c1 (stereo not given) | 69.9
3 | O=C(NCCC(O)CN1CCN(c2cccc(Cl)c2Cl)CC1)c1cnc2ccc(F)cc2c1 (stereo not given) | 8.05
4 | COc1ccc2[nH]c(C(=O)NCCCCN3CCN(c4cccc5ccccc45)CC3)cc2c1 | 0.173
5 | COc1ccccc1N1CCN(CC(O)CCNC(=O)c2ccc3cccnc3c2)CC1 (stereo not given) | 37.7
6 | COc1ccccc1N1CCN(CCCCNC(=O)c2ccc3ccccc3n2)CC1 | 3.46
7 | COc1c(Cl)cccc1N1CCN(CCCCNC(=O)c2cc3ccccc3o2)CC1 | 0.907
8 | COc1ccccc1N1CCN(CC(O)CCNC(=O)c2cnc3ccc(F)cc3c2)CC1 (stereo not given) | 44.8
9 | COc1ccccc1N1CCN(CC(O)CCNC(=O)c2ccc3cc(F)ccc3n2)CC1 (stereo not given) | 53.1
10 | COc1ccccc1N1CCN(CCCCNC(=O)c2cnc3ccc(F)cc3c2)CC1 | 2.14
11 | O=C(NCCCCN1CCN(c2cccc3ccccc23)CC1)c1cc2ccccc2o1 | 0.244
12 | COc1ccccc1N1CCN(CCCCNC(=O)c2ccc3cc(F)ccc3n2)CC1 | 2.51
13 | O=C(NCCCCN1CCN(c2cccc(Cl)c2Cl)CC1)c1cnc2ccc(F)cc2c1 | 0.57
14 | COc1ccccc1N1CCN(CC(O)CCNC(=O)c2cnc3ccc(C)cc3c2)CC1 (stereo not given) | 52.9
15 | COc1c(Cl)cccc1N1CCN(CC(O)CCNC(=O)c2cnc3ccccc3c2)CC1 (stereo not given) | 31.6
